Measurements: patent publication US20070232657A1, “NOVEL COMPOUNDS” (GLAXO GROUP LIMITED, priority 2006, published 2007)

Legend:
[1] = target: T1, human 5-HT4a receptor (Homo sapiens, UniProt Q13639); experiment: Yeast functional 5-HT4a agonist assay; format: cell-based; design: expressed in transfected cells; host or cells: Saccharomyces cerevisiae strain MMY23 (expression cassette integrated at the ura3 locus); details: n=9
From the text: Yeast Functional 5-HT4a Agonist Assay
Yeast (Saccharomyces cerevisiae) cells expressing the human 5-HT4a receptor were generated by integration of an expression cassette into the ura3 chromosomal locus of yeast strain MMY23. This cassette consisted of DNA sequence encoding the human 5-HT4a receptor flanked by the yeast glyceraldehyde-3-phosphate dehydrogenase (GPD) promoter to the 5′ end of 5-HT4a and a yeast transcriptional terminator sequence to the 3′ end of 5-HT4a. MMY23 expresses a yeast/mammalian chimeric G-protein alpha subunit in which the C-terminal 5 amino acids of Gpa1 are replaced with the C-terminal 5 amino acids of human Gil (as described in Brown et al. (2000), Yeast 16:11-22). Cells were grown at 30° C. in liquid Synthetic Complete (SC) yeast media (Guthrie and Fink (1991), Methods in Enzymology, Vol.194) lacking uracil, tryptophan, adenine and leucine to late logarithmic phase (approximately 6 OD600/ml).
Agonists were prepared as 10 mM stocks in DMSO. EC50 values (the concentration required to produce 50% maximal response) were estimated using serial dilutions of between 3- and 5-fold (BiomekFX, Beckman) into DMSO. pEC50 corresponds to negative log10 of molar EC50. […] After incubation at 30° C. for 24 hours, fluorescence resulting from degradation of FDGlu to fluorescein due to exoglucanase, an endogenous yeast enzyme produced during agonist-stimulated cell growth, was determined (excitation wavelength: 485 nm; emission wavelength: 535 nm) using a Spectrofluor (Tecan) or similar microtitre plate reader. Fluorescence was plotted against compound concentration and iteratively curve fitted using a four parameter fit to generate a concentration effect value. […]
Where Max[compound X] and Min[compound X] are the fitted maximum and minimum respectively from the concentration effect curve for compound X, and Max[5-HT] and Min[5-HT] are the fitted maximum and minimum respectively from the concentration effect curve for 5-hydroxytryptamine. Equieffective molar ratio (EMR) values were calculated from the equation: EMR=EC50 [compound X]/EC50 [5-HT] […]

[2] = tested on: longitudinal muscle strips from the rat gastric forestomach; experiment: Rat isolated forestomach assay (EFS-evoked contractions)
Protocol: Rat Isolated Forestomach Assay
Longitudinal muscle strips with mucosa partially removed were,obtained from the rat gastric forestomach, and suspended under an initial “load” of 1 g for isometric recording between two platinum ring electrodes, in 5 or 10 ml tissue baths containing Krebs solution bubbled with 5% CO2/95% O2 and maintained at 37° C. Following an equilibration period of 30 min, during which time the tissues were flushed every 15 minutes with fresh Krebs solution, tissues were stimulated with electrical field stimulation (EFS) [50V for 10 ml bath, 25V for 5 ml bath, at 2.5 Hz 0.5 ms pulse duration, for 10 s, every 1 min]. The tissues were left stimulating for at least 30 min. After obtaining consistent responses to EFS, the test compound was added to the bathing solution, each dose left in contact for at least 10 minutes. The % potentiation of contractions to EFS were measured as the area of 4 maximum EFS contractions after addition of compound relative to the area of 4 maximum EFS contractions before addition of the lowest concentration of compound. Data are expressed as means standard error of the mean; n-values are per animal used.

[3] = target: T1, human 5-HT4a receptor; experiment: Mammalian functional 5-HT4a agonist assay (HEK-293-MSR-II cells, FLIPR); format: cell-based; design: expressed in transfected cells; host or cells: HEK-293-MSR-II cells transduced with BacMam viruses
Protocol: Mammalian Functional 5-HT4a Agonist Assay
Human embryonic kidney cells stably expressing the human macrophage scavenger receptor type II (HEK-293-MSR-II cells) were established in-house (Lysko PG et al., J Pharmacol Exp Ther. 289(3):1277-85). These cells were grown in humidified conditions in Minimum Essential Medium containing 10% fetal calf serum (FCS), 1× non-essential amino acids, 2 mM L-glutamine and 0.4 mg/ml geneticin at 37° C./5% CO2.
BacMam plasmid constructs for the production of viruses for expression in mammalian cells were generated as described (Condreay J P et al., Proc. Natl. Acad. Sci. 96:127-132, Ames R et al., Receptors Channels 10(3-4):117-24). […]
The next day 50 μl Fluo4am dye (at 6 μM in Tyrodes buffer containing 1.5 mM calcium chloride and 2.5mM probenicid) was added to each well and incubated at 37° C./5% CO2 for one hour. […] A Fluorimetric Imaging Plate Reader (FLIPR) was used to add the compounds to the cells (50 μl per well) and to determine peak fluorescence emitted per well over the whole assay period.

[4] = target: 5HT2b (Homo sapiens, UniProt P41595); experiment: 5HT2b antagonist activity (no method given)
Chain of 5HT2b (P41595 whole entry, species assumed): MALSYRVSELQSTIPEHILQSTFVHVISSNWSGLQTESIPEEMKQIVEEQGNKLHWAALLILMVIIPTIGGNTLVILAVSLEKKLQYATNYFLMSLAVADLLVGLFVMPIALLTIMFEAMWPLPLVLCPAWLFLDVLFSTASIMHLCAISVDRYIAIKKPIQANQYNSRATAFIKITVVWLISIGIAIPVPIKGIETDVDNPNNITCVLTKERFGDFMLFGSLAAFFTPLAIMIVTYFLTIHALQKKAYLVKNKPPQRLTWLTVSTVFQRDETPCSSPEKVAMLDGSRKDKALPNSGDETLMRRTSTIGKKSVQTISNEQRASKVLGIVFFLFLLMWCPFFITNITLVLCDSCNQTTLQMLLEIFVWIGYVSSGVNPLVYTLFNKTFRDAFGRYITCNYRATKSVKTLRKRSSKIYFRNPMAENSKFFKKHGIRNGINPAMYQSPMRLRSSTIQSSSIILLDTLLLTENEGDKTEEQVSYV

T1 sequence (Q13639 1-387 isoform Q13639-2): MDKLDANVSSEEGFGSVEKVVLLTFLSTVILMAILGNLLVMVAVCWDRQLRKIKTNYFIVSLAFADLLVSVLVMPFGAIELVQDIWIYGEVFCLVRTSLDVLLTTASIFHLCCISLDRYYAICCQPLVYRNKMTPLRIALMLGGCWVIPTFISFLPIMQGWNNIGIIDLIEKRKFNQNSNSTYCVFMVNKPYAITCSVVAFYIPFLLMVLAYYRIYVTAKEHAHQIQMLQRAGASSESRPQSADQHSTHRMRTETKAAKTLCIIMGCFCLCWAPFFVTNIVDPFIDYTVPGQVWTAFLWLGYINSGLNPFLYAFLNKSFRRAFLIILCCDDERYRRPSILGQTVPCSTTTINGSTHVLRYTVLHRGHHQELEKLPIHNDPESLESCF

Structure (SMILES)	EMR (equieffective molar ratio, EC50 compound/EC50 5-HT) ([1]; relative to 5-HT)	Emax ([1]; relative to 5-hydroxytryptamine, read-out: Mean efficacy (Emax relative to 5-HT))	EC50 ([1]; yeast cells expressing human 5-HT4a, read-out: Mean pEC50 (converted))	% potentiation of contractions to EFS, Mean ([2]; 1 nM E1, n=5)	% potentiation of contractions to EFS, Mean ([2]; 10 nM E1, n=5)	% potentiation of contractions to EFS, Mean ([2]; 100 nM E1, n=5)	% potentiation of contractions to EFS, Mean ([2]; 1 μM E1, n=5)	% potentiation of contractions to EFS, Mean ([2]; 10 μM E1, n=5)	EC50 ([3]; HEK-293-MSR-II cells, BacMam 5-HT4a + Gα16, n=12, read-out: mean pEC50 (converted))	mean efficacy ([3]; relative to maximal effect of 5-HT, n=12)	gastroprokinetic activity ([2]; in vitro, rat forestomach assay)	5HT2b antagonist activity [4]
Cl.Nc1c(Br)cc(C(=O)NCC2CCN(CC3CCOCC3)CC2)c2c1CCCO2 [Example E1, 5-Amino-6-bromo-N-{[1-(tetrahydro-2H-pyran-4-ylmethyl)-4-piperidinyl]methyl}-3,4-dihydro-2H-chromene-8-carboxamide hydrochloride]	0.281	94%	0.501 nM	12.89%	50.62%	89.57%	115.46%	181.32%	2.29 nM	70%		
Nc1c(Br)cc(C(=O)NCC2CCN(CC3CCOCC3)CC2)c2c1CCCO2 [(A), 5-amino-6-bromo-N-{[1-(tetrahydro-2H-pyran-4-ylmethyl)-4-piperidinyl]methyl}-3,4-dihydro-2H-chromene-8-carboxamide]											exhibits gastroprokinetic activity	exhibit 5HT2b antagonist activity
